{"source": "patent US5780441A", "about": "“Sphingoglycolipid compounds and therapeutic uses thereof” (Kirin Beer Kabushiki Kaisha, priority 1993, dated 1998)", "key": {"B16 mouse melanoma cells": {"tested_on": "B16 mouse melanoma cells", "experiment": "Tumor growth inhibition in mice subcutaneously inoculated with B16 mouse melanoma cells", "type": "in vivo, mouse (BDF1 female)", "details": "0.1 mg/kg i.v. days 1, 5, 9; maximum during 20 days", "how_it_was_run": "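Female BDF1 mice (6 weeks, n=6/group) bearing subcutaneous B16 melanoma. Tumor volume [(length×width×height)/2] measured on days 8, 12, 16 and 20 after implantation; growth inhibition rate computed from treated vs control tumor volumes.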"}, "mouse splenic lymphocyte": {"tested_on": "mouse splenic lymphocyte", "experiment": "In vitro mouse splenic lymphocyte-proliferation-stimulating effect (3H-TdR uptake)", "type": "cell-based, mouse (BDF1 female)", "details": "2 days, 2880 min", "how_it_was_run": "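Spleen cells from 6-week-old female BDF1 mice, 2×10^6 cells/ml in 10% FCS RPMI 1640, cultured with vehicle or sample 2 days at 37° C, 5% CO2. ^3H-TdR (0.5 μCi/well) uptake over 6 h by scintillation counting, expressed as % of vehicle.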"}, "[1]": {"tested_on": "P388 mouse leukemia cells", "experiment": "Life-span-prolonging (anti-tumor) effect on mice subcutaneously inoculated with P388 mouse leukemia cells", "type": "in vivo, mouse (CDF1 female)", "details": "0.1 mg/kg i.v. on days 1, 5 and 9", "how_it_was_run": "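CDF1 female mice (6 weeks), 5 per group, inoculated subcutaneously with P388 leukemia cells; life-span prolongation assessed. Lentinan and picibanil given intravenously on days 1, 3, 5, 7 and 9 after implantation; sizofilan given subcutaneously on days 1 through 9. Statistics by Mann-Whitney test.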"}, "[2]": {"experiment": "Solubility in water in aqueous Polysorbate 20 solutions", "type": "physicochemical", "details": "vs Compound b", "method": "Compounds a and b comprising a monosaccharide as a constituent sugar which are disclosed in WO 93/05055 were synthesized as above. A 1 mg of each of the present compounds 4, 31 and 33 and Compound a and b was dissolved in 1 ml of an aqueous Polysorbate 20 solution in a variety of concentrations in order to observe visually the property."}, "mouse bone marrow cells": {"tested_on": "mouse bone marrow cells", "experiment": "In vitro mouse bone marrow cell-proliferation-promoting effect (3H-TdR uptake)", "type": "cell-based, mouse (BDF1 female)", "details": "4 days, 5760 min", "how_it_was_run": "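Femoral bone marrow monocytes from 6-week female BDF1 mice (Lympholite M fraction, 1×10^6 cells/ml in 10% FCS RPMI 1640) cultured with sample for 4 days at 37 °C, 5% CO2. 3H-TdR (0.5 μCi/well) added for final 6 h; uptake ratio versus vehicle reported as activation rate.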"}, "lethally irradiated mice": {"tested_on": "lethally irradiated mice", "experiment": "Radioprotective effect: life-span prolongation of lethally irradiated mice", "type": "in vivo, mouse (BDF1 female)", "details": "0.1 mg/kg i.v. days 0, 4, 8, 9 Gy X-ray, groups of 10, 0.1 mg/kg", "how_it_was_run": "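Female BDF1 mice (6 weeks, groups of 10) given 9 Gy X-ray on day 0, then compound 0.1 mg/kg intravenously by tail vein on days 0, 4 and 8. Survival followed for 40 days.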"}, "[3]": {"tested_on": "mixed lymphocyte culture reaction (spleen cells of C57BL/6 and BALB/C mice)", "experiment": "Mixed lymphocyte culture reaction (MLR)", "type": "cell-based, mouse (C57BL/6 stimulator, BALB/C responder)", "details": "42 hours, 2520 min", "how_it_was_run": "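Mouse one-way MLR: mitomycin C-treated (50 μg/ml, 30 min) C57BL/6 spleen cells stimulated BALB/C responder spleen cells, 2×10^6 cells/ml each, cultured 42 h at 37 °C with sample. ³H-thymidine (0.5 μCi/well) incorporation over a further 8 h gave MLR activating rate as % of vehicle uptake.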"}}, "data": [{"smiles": "CCCCCCCCCCCCCCCCCCCCCC[C@@H](O)C(=O)N[C@@H](CO[C@H]1O[C@H](CO)[C@H](O)[C@H](O[C@H]2O[C@H](CO)[C@H](O)[C@H](O)[C@H]2NC(C)=O)[C@H]1O[C@H]1O[C@H](CO)[C@@H](O)[C@H](O)[C@H]1O)[C@H](O)[C@H](O)CCCCCCCCCCCCCC", "note": "[Compound 4, O-(N-acetyl-2-amino-2-deoxy-α-D-galactopyranosyl)-(1→3)-O-[α-D-glucopyranosyl-(1→2)]-O-α-D-galactopyranosyl-(1→1)-(2S,3S,4R)-2-amino-N-[(R)-2-hydroxytetracosanoyl]-1,3,4-octadecanetriol]", "values": [{"measurement": "Maximum tumor growth inhibiting rate, TGIR (%)", "setting": "B16 mouse melanoma cells", "result": 84.0, "unit": "%"}, {"measurement": "Uptake of 3H-TdR (% of control), splenic lymphocytes", "setting": "mouse splenic lymphocyte; 10^0 μg/ml", "result": "792 % of control"}, {"measurement": "Uptake of 3H-TdR (% of control), splenic lymphocytes", "setting": "mouse splenic lymphocyte; 10^-1 μg/ml", "result": "692 % of control"}, {"measurement": "Uptake of 3H-TdR (% of control), splenic lymphocytes", "setting": "mouse splenic lymphocyte; 10^-2 μg/ml", "result": "395 % of control"}, {"measurement": "Uptake of 3H-TdR (% of control), splenic lymphocytes", "setting": "mouse splenic lymphocyte; 10^-3 μg/ml", "result": "325 % of control"}, {"measurement": "Survival days ave. ± s. d.", "setting": "[1]; all marked ** (p < 0.01)", "result": "15.2 ± 0.5", "unit": "days"}, {"measurement": "T/C (%)", "setting": "[1]; survival vs vehicle", "result": 119, "unit": "%"}, {"measurement": "amount of Polysorbate 20 required for dissolving, relative to that required for Compound b", "setting": "[2]", "result": "1/100"}, {"measurement": "Uptake of 3H-TdR (% of control), bone marrow cells", "setting": "mouse bone marrow cells; 10^-1 μg/ml", "result": "512 % of control"}, {"measurement": "Uptake of 3H-TdR (% of control), bone marrow cells", "setting": "mouse bone marrow cells; 10^-2 μg/ml", "result": "163 % of control"}, {"measurement": "Number of surviving mice", "setting": "lethally irradiated mice; day 10", "result": 10, "unit": "mice"}, {"measurement": "Number of surviving mice", "setting": "lethally irradiated mice; day 15", "result": 8, "unit": "mice"}, {"measurement": "Number of surviving mice", "setting": "lethally irradiated mice; day 20", "result": 8, "unit": "mice"}, {"measurement": "Number of surviving mice", "setting": "lethally irradiated mice; day 25", "result": 6, "unit": "mice"}, {"measurement": "Number of surviving mice", "setting": "lethally irradiated mice; day 30", "result": 5, "unit": "mice"}, {"measurement": "Number of surviving mice", "setting": "lethally irradiated mice; day 35", "result": 5, "unit": "mice"}, {"measurement": "Number of surviving mice", "setting": "lethally irradiated mice; day 40", "result": 5, "unit": "mice"}, {"measurement": "MLR activating rate (%)", "setting": "[3]; 1 × 10^0 μg/ml", "result": 209, "unit": "%"}, {"measurement": "MLR activating rate (%)", "setting": "[3]; 1 × 10^-1 μg/ml", "result": 163, "unit": "%"}]}]}
